Measured values as given in paper PMC8162438, “Cancer cell-selective modulation of mitochondrial respiration and metabolism by potent organogold(III) dithiocarbamates” (Chemical Science, 2020).

Test system: MDA-MB-231
Assay: Cell cycle analysis by flow cytometry (PI)
Format: cell-based
Conditions: MDA-MB-231, 0.1 μM
Experimental: The effect of 2a on cell cycle was studied by flow cytometry. We observed a time-dependent increase in G0/G1 cell cycle population over 24–72 h period. […] There are several small molecule drug candidates in clinical trials as inhibitors of CDK4/6 and induce G1 cell cycle arrest.[107–110] Thus, our finding is relevant for the design of gold based therapies for refractory tumors such as TNBC.[107–110] After 24 h, a 10% increase can be seen for G1 cell population as well as a 6% decrease in S phase in comparison to the control (Fig. 12B and C). […] The mitochondria control cellular ATP production, it is therefore possible that inhibition of mitochondria respiration and consequently low ATP levels lead to cell cycle arrest.[112–114] […]
with a final volume of 100 µL and incubated overnight at 37 °C. Compound 2a was prepared as a stock in DMSO and diluted to a working concentration of 200 µM with Seahorse XF96 assay buffer and then subsequently serial diluted by 3x to achieve multiple concentrations. The assay was performed using a pneumatic injection method of 2a, with the final injection concentrations of 0.1, 1, 3 , and 11 µM. This was followed by injection of oligomycin (1.5 µM), FCCP (0.6 µM) and rotenone/ antimycin A (0.5 µ M). […]
supplementary information of the following papers. 15-16
The Seahorse XF96 analysis for MRC5 was performed in an identical manner to MDA-MB-231 except that MRC5 cells were seeded at a density of 50,000 cells/well and an FCCP injection concentration of 0.6 µ M was used.
Cell Cycle Analysis. MDA-MB-231 cells were seeded at a density of 2 x 10^5 cells/well in a 6 well clear bottom plate with a final media volume of 2 mL and allowed to adhere overnight 37 °C. Compound 2a was prepared fresh as a stock in DMSO and added at a final concentration of 0.1 µM with a final volume of 2.5 mL. […] These solutions were stored at 4 °C until ready for analysis. […] The samples were then analyzed with FACS. […]

In the case of `C[N+](C)=C1[S][Au-2]2([S]1)[c]1ccccc1Cc1cccc[n+]12.F[P-](F)(F)(F)(F)F` (stereo not drawn) [2a], the “Decrease in S phase versus control” value (24 h) is reported as 6%, the “Increase in G1 cell population versus control” value (24 h) is reported as 10% and the “G1 phase change over 72 h” value (72 h) is reported as “significant increase in G1 phase”.
